Data from the supplement of paper PMC11451515.

Test system: SEM cells
Assay: cell viability relative to DMSO control; higher = less cytotoxic
Details: 48 h
Method in brief: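 Three leukemia lines were tested: NOMO1 and SEM at 500 cells/well and P12-Ichikawa at 1000 cells/well. Each was adapted for at least four passages in each medium and seeded in 5 μl in 1536-well plates, and library compounds in DMSO were pin-dosed from 47 μM to 0.79 nM in 11 threefold steps. After 48 h at 37°C, CellTiter-Glo One luminescence was read. Viability is a percentage relative to DMSO wells on each plate, with cell-free wells as background.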

[1] = HPLM + 10% dialyzed FBS, 0.000781 µM
[2] = HPLM + 10% dialyzed FBS, 0.00234 µM
[3] = HPLM + 10% dialyzed FBS, 0.00702 µM
[4] = HPLM + 10% dialyzed FBS, 0.0211 µM
[5] = HPLM + 10% dialyzed FBS, 0.0632 µM
[6] = HPLM + 10% dialyzed FBS, 0.19 µM
[7] = HPLM + 10% dialyzed FBS, 0.569 µM
[8] = HPLM + 10% dialyzed FBS, 1.71 µM
[9] = HPLM + 10% dialyzed FBS, 5.12 µM
[10] = HPLM + 10% dialyzed FBS, 15.4 µM
[11] = HPLM + 10% dialyzed FBS, 46.1 µM
[12] = RPMI 5 mM glucose + 10% FBS, 0.000781 µM
[13] = RPMI 5 mM glucose + 10% FBS, 0.00234 µM
[14] = RPMI 5 mM glucose + 10% FBS, 0.00702 µM
[15] = RPMI 5 mM glucose + 10% FBS, 0.0211 µM
[16] = RPMI 5 mM glucose + 10% FBS, 0.0632 µM
[17] = RPMI 5 mM glucose + 10% FBS, 0.19 µM
[18] = RPMI 5 mM glucose + 10% FBS, 0.569 µM
[19] = RPMI 5 mM glucose + 10% FBS, 1.71 µM
[20] = RPMI 5 mM glucose + 10% FBS, 5.12 µM
[21] = RPMI 5 mM glucose + 10% FBS, 15.4 µM
[22] = RPMI 5 mM glucose + 10% FBS, 46.1 µM
[23] = RPMI 5 mM glucose + 10% dialyzed FBS, 0.000781 µM
[24] = RPMI 5 mM glucose + 10% dialyzed FBS, 0.00234 µM
[25] = RPMI 5 mM glucose + 10% dialyzed FBS, 0.00702 µM
[26] = RPMI 5 mM glucose + 10% dialyzed FBS, 0.0211 µM
[27] = RPMI 5 mM glucose + 10% dialyzed FBS, 0.0632 µM
[28] = RPMI 5 mM glucose + 10% dialyzed FBS, 0.19 µM
[29] = RPMI 5 mM glucose + 10% dialyzed FBS, 0.569 µM
[30] = RPMI 5 mM glucose + 10% dialyzed FBS, 1.71 µM
[31] = RPMI 5 mM glucose + 10% dialyzed FBS, 5.12 µM
[32] = RPMI 5 mM glucose + 10% dialyzed FBS, 15.4 µM
[33] = RPMI 5 mM glucose + 10% dialyzed FBS, 46.1 µM

Compound: CN1CCN(C(=O)O[C@H]2c3nccnc3C(=O)N2c2ccc(Cl)cn2)CC1
- cell viability [1]: 103%
- cell viability [2]: 105%
- cell viability [3]: 99.8%
- cell viability [4]: 104%
- cell viability [5]: 101%
- cell viability [6]: 89%
- cell viability [7]: 108%
- cell viability [8]: 97.9%
- cell viability [9]: 105%
- cell viability [10]: 39.8%
- cell viability [11]: 95.8%
- cell viability [12]: 101%
- cell viability [13]: 106%
- cell viability [14]: 109%
- cell viability [15]: 111%
- cell viability [16]: 109%
- cell viability [17]: 96.6%
- cell viability [18]: 99.9%
- cell viability [19]: 116%
- cell viability [20]: 108%
- cell viability [21]: 43.4%
- cell viability [22]: 89%
- cell viability [23]: 110%
- cell viability [24]: 105%
- cell viability [25]: 113%
- cell viability [26]: 111%
- cell viability [27]: 102%
- cell viability [28]: 105%
- cell viability [29]: 110%
- cell viability [30]: 110%
- cell viability [31]: 103%
- cell viability [32]: 30.6%
- cell viability [33]: 95.6%

Compound: CCOC(=O)\C1=C\[C@@H](OC(CC)CC)[C@H](NC(C)=O)[C@@H](N)C1
- cell viability [1]: 73.2%
- cell viability [2]: 82.3%
- cell viability [3]: 95.9%
- cell viability [4]: 97.5%
- cell viability [5]: 77.9%
- cell viability [6]: 102%
- cell viability [7]: 91.4%
- cell viability [8]: 70.8%
- cell viability [9]: 101%
- cell viability [10]: 96.8%
- cell viability [11]: 56%
- cell viability [12]: 77.6%
- cell viability [13]: 85.1%
- cell viability [14]: 93.3%
- cell viability [15]: 99.1%
- cell viability [16]: 85%
- cell viability [17]: 92.7%
- cell viability [18]: 96.8%
- cell viability [19]: 78.8%
- cell viability [20]: 88.8%
- cell viability [21]: 111%
- cell viability [22]: 89.3%
- cell viability [23]: 75.6%
- cell viability [24]: 82.7%
- cell viability [25]: 92.3%
- cell viability [26]: 84.9%
- cell viability [27]: 75.5%
- cell viability [28]: 98.2%
- cell viability [29]: 102%
- cell viability [30]: 73.7%
- cell viability [31]: 97.7%
- cell viability [32]: 104%
- cell viability [33]: 68.3%

Compound: CC1(C)C(N(O)C(=O)Nc2ccc(Cl)cc2)N(c2ccc(Cl)cc2)C(=O)N1CC(=O)N/N=C/C=C/c1ccc([N+](=O)[O-])o1 (configuration not stated)
- cell viability [1]: 128%
- cell viability [2]: 117%
- cell viability [3]: 120%
- cell viability [4]: 119%
- cell viability [5]: 122%
- cell viability [6]: 81.4%
- cell viability [7]: 110%
- cell viability [8]: 117%
- cell viability [9]: 52.7%
- cell viability [10]: 107%
- cell viability [11]: 3.81%
- cell viability [23]: 114%
- cell viability [24]: 115%
- cell viability [25]: 111%
- cell viability [26]: 113%
- cell viability [27]: 121%
- cell viability [28]: 91.6%
- cell viability [29]: 104%
- cell viability [30]: 99.1%
- cell viability [31]: 30.9%
- cell viability [32]: 80.8%
- cell viability [33]: 2.64%

Compound: COc1ccc2cc1Oc1ccc(cc1)C[C@H]1c3cc(c(OC)cc3CCN1C)Oc1c(OC)c(OC)cc3c1[C@H](C2)N(C)CC3
- cell viability [1]: 123%
- cell viability [2]: 120%
- cell viability [3]: 135%
- cell viability [4]: 107%
- cell viability [5]: 111%
- cell viability [6]: 123%
- cell viability [7]: 108%
- cell viability [8]: 82.6%
- cell viability [9]: 130%
- cell viability [10]: 102%
- cell viability [11]: 86.8%
- cell viability [12]: 124%
- cell viability [13]: 122%
- cell viability [14]: 115%
- cell viability [15]: 144%
- cell viability [16]: 127%
- cell viability [17]: 126%
- cell viability [18]: 120%
- cell viability [19]: 88.9%
- cell viability [20]: 116%
- cell viability [21]: 105%
- cell viability [22]: 72.5%
- cell viability [23]: 125%
- cell viability [24]: 117%
- cell viability [25]: 113%
- cell viability [26]: 125%
- cell viability [27]: 107%
- cell viability [28]: 135%
- cell viability [29]: 105%
- cell viability [30]: 95.6%
- cell viability [31]: 114%
- cell viability [32]: 89.5%
- cell viability [33]: 64%

Compound: N#C/C(C(=O)c1ccc(Cl)cc1Cl)=C1/NC(=O)c2ccc(Cl)cc2N1
- cell viability [1]: 124%
- cell viability [2]: 132%
- cell viability [3]: 124%
- cell viability [4]: 125%
- cell viability [5]: 129%
- cell viability [6]: 121%
- cell viability [7]: 123%
- cell viability [8]: 112%
- cell viability [9]: 110%
- cell viability [10]: 117%
- cell viability [11]: 111%
- cell viability [23]: 99.5%
- cell viability [24]: 125%
- cell viability [25]: 131%
- cell viability [26]: 126%
- cell viability [27]: 127%
- cell viability [28]: 108%
- cell viability [29]: 111%
- cell viability [30]: 137%
- cell viability [31]: 79.5%
- cell viability [32]: 105%
- cell viability [33]: 108%

Compound: N#C[C@H](O[C@@H]1O[C@H](CO[C@@H]2O[C@H](CO)[C@@H](O)[C@H](O)[C@H]2O)[C@@H](O)[C@H](O)[C@H]1O)c1ccccc1
- cell viability [1]: 114%
- cell viability [2]: 103%
- cell viability [3]: 113%
- cell viability [4]: 127%
- cell viability [5]: 115%
- cell viability [6]: 118%
- cell viability [7]: 108%
- cell viability [8]: 102%
- cell viability [9]: 110%
- cell viability [10]: 114%
- cell viability [11]: 41.8%
- cell viability [12]: 106%
- cell viability [13]: 98.3%
- cell viability [14]: 120%
- cell viability [15]: 112%
- cell viability [16]: 99.8%
- cell viability [17]: 102%
- cell viability [18]: 112%
- cell viability [19]: 94.8%
- cell viability [20]: 94.5%
- cell viability [21]: 95.7%
- cell viability [22]: 20.6%
- cell viability [23]: 97.4%
- cell viability [24]: 104%
- cell viability [25]: 97.4%
- cell viability [26]: 122%
- cell viability [27]: 99%
- cell viability [28]: 99.7%
- cell viability [29]: 97.5%
- cell viability [30]: 101%
- cell viability [31]: 91.4%
- cell viability [32]: 92.2%
- cell viability [33]: 15.3%

Compound: Cc1ncc([N+](=O)[O-])n1CC(C)O (configuration not stated)
- cell viability [1]: 60.5%
- cell viability [2]: 75.1%
- cell viability [3]: 69.3%
- cell viability [4]: 75.5%
- cell viability [5]: 57.6%
- cell viability [6]: 71.4%
- cell viability [7]: 91.4%
- cell viability [8]: 88.1%
- cell viability [9]: 81.6%
- cell viability [10]: 82.8%
- cell viability [11]: 13.3%
- cell viability [12]: 78.9%
- cell viability [13]: 99.3%
- cell viability [14]: 89.4%
- cell viability [15]: 99.8%
- cell viability [16]: 64.6%
- cell viability [17]: 97.8%
- cell viability [18]: 102%
- cell viability [19]: 110%
- cell viability [20]: 96.2%
- cell viability [21]: 101%
- cell viability [22]: 14.8%
- cell viability [23]: 84.2%
- cell viability [24]: 101%
- cell viability [25]: 98.4%
- cell viability [26]: 99.3%
- cell viability [27]: 84.6%
- cell viability [28]: 104%
- cell viability [29]: 118%
- cell viability [30]: 119%
- cell viability [31]: 110%
- cell viability [32]: 99.6%
- cell viability [33]: 14%

Compound: OC[C@H]1O[C@@H]2[C@@H](OC\3=N\C(=N)\C=C/[N@@]23)[C@@H]1O
- cell viability [1]: 94%
- cell viability [2]: 107%
- cell viability [3]: 93.1%
- cell viability [4]: 97.8%
- cell viability [5]: 84.4%
- cell viability [6]: 47.9%
- cell viability [7]: 34.6%
- cell viability [8]: 28.1%
- cell viability [9]: 21.9%
- cell viability [10]: 16.1%
- cell viability [11]: 14.5%
- cell viability [12]: 105%
- cell viability [13]: 116%
- cell viability [14]: 102%
- cell viability [15]: 117%
- cell viability [16]: 87%
- cell viability [17]: 46.9%
- cell viability [18]: 41.9%
- cell viability [19]: 23.3%
- cell viability [20]: 16%
- cell viability [21]: 13.8%
- cell viability [22]: 13.5%
- cell viability [23]: 85.3%
- cell viability [24]: 86.2%
- cell viability [25]: 99.8%
- cell viability [26]: 81.1%
- cell viability [27]: 59.8%
- cell viability [28]: 37.8%
- cell viability [29]: 22.4%
- cell viability [30]: 14.8%
- cell viability [31]: 13%
- cell viability [32]: 10.7%
- cell viability [33]: 8.17%
